Data: patent US8026342B2, “Compositions and methods for binding sphingosine-1-phosphate” (Lpath, Inc., priority 2006, dated 2011)
“And” between values parts separate entries of the source, which are not always exact repeats. Identical values can stand only once.

How the values were obtained:
HT29 tumor = assay: SC HT29 colorectal tumor xenograft; format: in vivo, athymic NCr-nu/nu mice; details: LT1009 50 mg/kg ip q2d; Avastin 20 mg/kg iv q4d; 5-FU 75 mg/kg ip q4d
Protocol: Nude mice were implanted sc near the right flank with one fragment per mouse of HT29 tumor from an in vivo passage. All treatments were initiated the day when 60 mice in each experiment established tumors ranging in size from approximately 100 to 200 mm^3. There were ten mice per treatment group. […] 75 mg/kg 5-FU and 20 mg/kg Avastin were administered ip and iv at a dosage of 75 mg/kg/dose and 20 mg/kg/dose, respectively, q4d, injected in a volume of 0.1 mL/10 g body weight.
(§1) Animals were observed daily for mortality. Tumor dimensions and body weights were collected twice weekly starting with the first day of treatment and including the day of study termination. When the median tumor in the vehicle-treated control group in each study reached approximately 4,000 mg, the study was terminated. Tumors from each animal were harvested, wet weights were recorded, and tumors were processed for determination of MVD by CD-31 staining. Tumor weights (mg) were calculated using the equation for an ellipsoid sphere (l×w^2)/2=mm^3, where l and w refer to the larger and smaller dimensions collected at each measurement and assuming unit density (1 mm^3=1 mg).

[1] = tested on: experimental autoimmune encephalomyelitis; details: 0.1 mg/kg p.o. or higher doses; cited from earlier work
peripheral lymphocytes = details: single oral dose; cited from earlier work
COLO205 tumor = assay: SC COLO205 colorectal tumor xenograft; format: in vivo, nude NCr (nu/nu) mice; details: LT1009 50 mg/kg ip q3d; Avastin 40 mg/kg iv q7d; Paclitaxel 15 mg/kg iv q1d×5
Protocol: Nude mice were implanted sc near the right flank with one fragment per mouse of COLO 205 tumor from an in vivo passage. All treatments were initiated the day when 60 mice in each experiment established tumors ranging in size from approximately 100 to 200 mm3. […] Avastin was administered iv at a dosage of 40 mg/kg/dose on a q7d schedule, injected in a volume of 0.1 mL/20 g body weight. Paclitaxel (positive control), was administered iv at a dosage of 15 mg/kg/dose on a q1d×5 schedule, injected in a volume of 0.1 mL/10 g body weight.
as §1, with “recorded,” for “recorded, and”, “microvascular densities (MVD)” for “MVD”

DU145 tumor = assay: SC DU145 prostate tumor xenograft; format: in vivo, nude NCr (nu/nu) mice; details: LT1009 50 mg/kg ip q2d; Avastin 20 mg/kg q4d; Paclitaxel 7.5 mg/kg q1d×5
Protocol: Nude mice were implanted sc near the right flank with one fragment per mouse of DU145 tumor from an in vivo passage. All treatments were initiated the day when 60 mice in each experiment established tumors ranging in size from approximately 100 to 200 mm^3. […] Paclitaxel and Avastin were administered iv and ip at a dosage of 7.5 mg/kg/dose and 20 mg/kg/dose, q1d×5 and q4d, respectively, injected in a volume of 0.1 mL/10 g body weight.
During the course of the study tumor growth was monitored by measuring the sc tumors on three axes and calculating the volume. At the end of the study final tumor weights and volumes were determined and then the mice were sacrificed, the tumors harvested. Microvascular densities (MVD) of the tumors were then determined by CD-31 staining.

RPMI 8226 tumor = assay: RPMI 8226 human myeloma tumor xenograft; format: in vivo, CB17 SCID mice; details: LT1009 50 mg/kg IP Q3D to end; Bortezomib iv Q3D×6
Protocol: Nude mice (CB17 SCID, aged 4-5 weeks, weight 18-22 gm, female mice obtained from Harlan) were injected sc with RPMI 8226 cells harvested from tissue culture (˜1×10^7 cells/mouse). When tumors grew to approximately 100 mm^3 in size, animals were pair-matched by tumor size into treatment and control groups (10 mice per group). Initial dosing began Day 1 following pair-matching. Animals in all groups were dosed by weight (0.01 ml per gram; 10 ml/kg). […] Bortezomib was administered by intravenous injection via tail vein once every three days for six treatments (Q3D×6).
Individual and group mean tumor volumes±SEM are recorded twice weekly until study completion beginning Day 1. Final mean tumor volume±SEM for each group are reported at study completion; animals experiencing partial or complete tumor regressions or animals experiencing technical or drug-related deaths are censored from these calculations.

HUVECs = assay: HUVEC Matrigel chemoinvasion (migration) assay; format: cell-based, human; details: 0.1-1 μM S1P
Protocol: FIG. 5 has two panels, A and B. In panel A, S1P is shown to promote neovascularization through induction of HUVECs tube formation and migration, which is reduced by SPHINGOMAB. […] The number of cells that migrated to the Matrigel membrane were counted in five independent fields.
Experiments were performed as described by Visentin et al. (Cancer Cell 2006 March; 9(3):225-38).

[2] = tested on: Matrigel plug neovascularization; assay: In vivo Matrigel plug assay for neovascularization (S1P, VEGF, bFGF); set-up: species or system mice; details: Matrigel with 1 μM S1P
Protocol: Based on in vivo studies showing that S1P increased endothelial capillary growth into subcutaneously implanted Matrigel plugs, we speculated that SPHINGOMAB could reduce de novo BV formation in vivo. To investigate this, we employed the in vivo Matrigel Plug assay for neovascularization. In one set of experiments, Matrigel was supplemented with either 1 μM S1P, 0.5 μg/mL bFGF or 1 μg/mL VEGF and then […]. into mice (n=4). After 10 days, the mice were heparinized and injected with the fluorescent lectin, Isolectin B4-FITC, which binds to adhesion molecules expressed by vascular EC that form the growing BVs. The plugs were then excised, frozen in OCT, sectioned and viewed for FITC-stained BVs.
Sections of the plugs were then stained with hemotoxyln & eosin for evaluation of EC infiltration (FIG. 6B). The infiltration of ECs is a critical step in neo-vascularization. […] Cell infiltration is presumed to be ECs although we recognize that other cell types such as immune cells may also be stained.
Endogenous S1P from the blood and surrounding tissue could supply a wound with pro-angiogenic stimuli. The ability of SPHINGOMAB to reduce endogenous S1P in a wound was investigated. Optimally stimulated plugs (Matrigel supplemented with 0.5 μg/mL bFGF or […] VEGF) were implanted into mice. Mice received i.p. injections of 25 mg/kg SPHINGOMAB or saline every 48 hrs starting 1 day prior to Matrigel implantation. Each treatment group (Matrigel, Matrigel plus GF or Matrigel plus GF and administered SPHINGOMAB) consisted of a minimum of 6 mice. After 10 days, the mice were treated with heparin, injected with Isolectin B4-FITC, the plugs excised, embedded in OCT freezing medium and sectioned.

[3] = tested on: human retinal pigmented epithelial cells; assay: alpha-SMA expression (myofibroblast transformation) in retinal pigmented epithelial cells; format: cell-based
Text: (§2) In many of these disorders, circulating growth factors and chemokines promote the transformation of normal ocular cells into fibrocontractile, scar tissue-producing cells that have been termed “myofibroblasts”. Normally, myofibroblasts are responsible for tissue repair as part of the wound healing response following injury. However altered number and function of myofibroblasts are implicated in diseases characterized by pathological scar tissue formation in the liver, skin, lung, kidney, heart and eyes. In the eye, transformation of retinal pigmented epithelial (RPE) cells to a myofibroblast phenotype is linked to formation of fibro-contractile membranes which cause retinal detachment and subsequent vision impairment. In addition, myofibroblast transformation of ocular fibroblasts can result in abnormal scar tissue production after eye injury leading to subsequent vision loss. Although many of the circulating protein factors in the eye that promote myofibroblast formation have been identified, nothing is known regarding the role of lysolipids such as S1P in this process. Therefore, we examined the effects of S1P on myofibroblast transformation of several human ocular cell lines.
In these experiments, the ability of S1P to promote α-SMA expression differed in a concentration dependent manner between the retinal pigmented epithelial cells and conjunctiva fibroblasts. […]

[4] = tested on: human conjunctiva fibroblasts; assay: alpha-SMA and PAI-1 expression in conjunctiva fibroblasts; format: cell-based
Text: as §2
In these experiments, the ability of S1P to promote α-SMA expression differed in a concentration dependent manner between the retinal pigmented epithelial cells and conjunctiva fibroblasts. […] This difference is believed to result from increased S1P receptor expression in the epithelial cells compared to the fibroblasts. Due to increased S1P receptor expression levels, retinal pigmented epithelial cells are likely more sensitive to S1P at low concentrations. In contrast, at high S1P levels the receptors become […] or possibly even internalized leading to decreased stimulation by S1P.
Collagen is one of the primary structural proteins that supports all tissues in the body and is one of the main components of scar tissue. In the non-pathological setting, total collagen content within tissue is maintained via a balance between collagen production by fibroblasts and degradation by certain enzymes. […]

exudative AMD = details: 2 year MARINA trial and 1 year ANCHOR trial; cited from earlier work

Molecule: O=c1[nH]cc(F)c(=O)[nH]1 [5-FU, 5-fluorouracil]
- % Reduction compared to Vehicle-Treated Mice (HT29 tumor): 28%
- Final Tumor Weights (HT29 tumor): 1963.71 mg

Molecule: CCCCCCCCc1ccc(CCC(N)(CO)CO)cc1.Cl [FTY720, 2-amino-2-(2-[4-octylphenyl]ethyl)-1,3-propanediol hydrochloride]
- paralysis in EAE [1]: almost completely prevents paralysis
- reduction of peripheral lymphocyte counts (peripheral lymphocytes): 30-70%

Molecule: CC(=O)O[C@H]1C(=O)[C@@]2(C)[C@H]([C@H](OC(=O)c3ccccc3)[C@]3(O)C[C@H](OC(=O)[C@H](O)[C@@H](NC(=O)c4ccccc4)c4ccccc4)C(C)=C1C3(C)C)[C@]1(OC(C)=O)CO[C@@H]1C[C@@H]2O [Paclitaxel]
- % Reduction compared to Vehicle-Treated Mice (COLO205 tumor): 100%
- Final Tumor Weights (COLO205 tumor): 0 mg
- % Reduction compared to Vehicle-Treated Mice (DU145 tumor): 80%
- Final Tumor Weights (DU145 tumor): 539 mg

Molecule: CC(C)C[C@H](NC(=O)[C@H](Cc1ccccc1)NC(=O)c1cnccn1)B(O)O [Bortezomib, reference compound]
- % Reduction compared to Vehicle-Treated Mice (RPMI 8226 tumor): 20%
- Final Tumor Weights (RPMI 8226 tumor): 1664 mg

Molecule: CCCCCCCCCCCCC/C=C/[C@@H](O)[C@@H](N)COP(=O)(O)O [S1P, sphingosine-1-phosphate]
- stimulation of HUVEC migration over non-treated HUVECs (HUVECs): 2-2.5 fold
- increase of EC infiltration in comparison to Matrigel only plugs [2]: 3 fold
- S1P concentration at which a significant increase in α-SMA expression was observed [3]: 0.001 µM
- production of α-Smooth muscle actin (α-SMA) [3]: stimulates production
- PAI-1 expression [4]: stimulates the PAI-1 expression in a dose-dependent manner
- S1P concentration at which a significant increase in α-SMA expression was observed [4]: 10 µM
- production of α-Smooth muscle actin (α-SMA) [4]: stimulates production

Molecule: Avastin: anti-angiogenic drug, bevacizumab (Avastin, Genentech)
- % Reduction compared to Vehicle-Treated Mice (COLO205 tumor): 35%
- Final Tumor Weights (COLO205 tumor): 1967.90 mg
- % Reduction compared to Vehicle-Treated Mice (HT29 tumor): 30%
- Final Tumor Weights (HT29 tumor): 1927.44 mg
- % Reduction compared to Vehicle-Treated Mice (DU145 tumor): 80% and 79%
- Final Tumor Weights (DU145 tumor): 578 mg

B1: RANIBIZUMAB: antibody fragment inhibiting all isoforms of VEGF-A (antibody, chains of the INN, looked up, V domains shown)
VH: EVQLVESGGGLVQPGGSLRLSCAASGYDFTHYGMNWVRQAPGKGLEWVGWINTYTGEPTYAADFKRRFTFSLDTSKSTAYLQMNSLRAEDTAVYYCAKYPYYYGTSHWYFDVWGQGTLVTVSS
VL: DIQLTQSPSSLSASVGDRVTITCSASQDISNYLNWYQQKPGKAPKVLIYFTSSLHSGVPSRFSGSGSGTDFTLTISSLQPEDFATYYCQQYSTVPWTFGQGTKVEIK
modifications: Fab
- patients achieving some visual gain (exudative AMD): approximately 40%
